This is an account of results in patent US11964943B2, “3,5-diarylidenyl-n-substituted-piperid-4-one-derived inhibitors of Stat3 pathway activity and uses thereof” (priority 2017, dated 2024).

Values after ≈ are worked out from the molar mass of the structure shown. Where two headings read alike, the source gives them in different places.

Data set [1] deals with B16 (melanoma) cells. In words: MTT cytotoxicity assay, B16 cells. On the technique in general: Tetrazolium assays rely on reduction of a dye to a coloured formazan, in cell work by metabolically active cells.
The test system of data set [2] is L1210 (lymphoma) cells. Put plainly: MTT cytotoxicity assay, L1210 cells.
The subject of data set [3] is MDA-MB-435 cancer cell line. Put plainly: SRB antiproliferative assay, MDA-MB-435. The class given is cell-based, human. Conditions: Homo sapiens, MDA-MB-435, 48 h exposure. In general terms: In SRB staining, fixed cells bind dye roughly in proportion to their protein.
Data set [4] can be described thus: Aqueous solubility (MultiScreen Solubility Filter Plate, shake-flask based). The settings on record: aqueous buffer with 5% DMSO, pH 7.4, aqueous with cosolvent or surfactant or cyclodextrin, kinetic from dmso stock.
Method: Aqueous solubility of Compounds of the Invention was measured with a modified version of the MultiScreen Solubility Filter Plate protocol (Millipore). This assay was based on the shake-flask equilibrium method and utilizes UV-Vis spectroscopy to quantify the unknown samples. The assay was conducted at room temperature at pH 7.4. […] Compound of the Invention was dissolved in DMSO, and the final DMSO concentration was 5% (v/v). Each sample was analyzed by UV-Vis spectroscopy at 10 nm increments from 260-600 nm to determine the optimal wavelength for detection and construct standard curves. […] A 4:1 mixture of supernatant to acetonitrile was added to a 96-well acrylic plate and analyzed by UV-Vis spectroscopy.
Aqueous solubility was measured with a modified version of the MultiScreen Solubility Filter Plate protocol (Millipore). This assay is based on the shake-flask equilibrium method and utilizes UV-Vis spectroscopy to quantify the unknown samples. The assay is conducted at room temperature at pH 7.4. […] Each compound was dissolved in DMSO, and the final DMSO concentration was 5% (v/v). Each sample was analyzed by UV-Vis spectroscopy at 10 nm increments from 260-600 nm to determine the optimal wavelength for detection and construct standard curves. […] A 4:1 mixture of supernatant to acetonitrile was added to a 96-well acrylic plate and analyzed by UV-Vis spectroscopy.
[5] abbreviates: Mus musculus, B16, 72 h, read-out: IC50 (μM) B16, 72 h exposure, MTT, mean of three independent experiments.
Where [6] appears, read: Mus musculus, L1210, 72 h, read-out: IC50 (μM) L1210, 72 h exposure, MTT, mean of three independent experiments.
Where [7] appears, read: read-out: IC50 (μM) B16, 72 h exposure, MTT, mean of three independent experiments.
[8] abbreviates: read-out: IC50 (μM) L1210, 72 h exposure, MTT, mean of three independent experiments.

Regarding `COc1cc(/C=C2\CN(c3ccccc3)C/C(=C\c3ccc(O)c(OC)c3)C2=O)ccc1O` [IE-6, 3,5-Di(4-hydroxy-3-methoxybenzylidene)-1-phenylpiperidin-4-one], the melting point is 139 to 143 °C. The half-maximal inhibitory concentration (IC50) in data set [1] (setting [5]) amounted to 2.9 ± 0.4 µM. Further, in data set [2] (setting [6]), the IC50 stood at 2.8 ± 0.4 µM.

On to `COc1cc(/C=C2\CN(Cc3ccccc3)C/C(=C\c3cc(OC)c(OC)c(OC)c3)C2=O)cc(OC)c1OC` [ID-8], for which the 50% inhibitory concentration (IC50) was 0.76 µM in data set [3], 2.4 µM in data set [1] (setting [5]) and 3.6 µM in data set [2] (setting [6]). The same molecule returned a solubility at 6 h in data set [4] of 210 ± 20 µM (≈ 115 µg/mL).

For `COc1ccc(/C=C2\CN(c3ccccc3)C/C(=C\c3ccc(OC)cc3)C2=O)cc1` [IE-4, 3,5-Di(4-methoxybenzylidene)-1-phenylpiperidin-4-one], the melting point fell in the range of 152 to 155 °C. In data set [1] (setting [5]), the half-maximal inhibitory concentration (IC50) was 25 to 65 µM. In data set [1] (setting [7]), the half-inhibitory concentration (IC50) worked out at 37 ± 6 µM. Besides, in data set [2] (setting [8]), the IC50 is 55 ± 7 µM.

In the case of `COc1cc(/C=C2\CN(C)C/C(=C\c3cc(OC)c(OC)c(OC)c3)C2=O)cc(OC)c1OC` [IB-8], the IC50 in data set [3] is 0.19 µM; in data set [1] (setting [5]) it was 0.31 µM; in data set [1] (read-out: IC50 (μM) B16, 72 h exposure, MTT, mean of three independent experiments, listed as 5 h) it was about 0.3 µM; in data set [2] (setting [6]), 0.37 µM; in data set [2] (read-out: IC50 (μM) L1210, 72 h exposure, MTT, mean of three independent experiments, listed as 5 h), about 0.3 µM. For the same molecule, the concentration in solution in data set [4] (solubility at 6 h) came to 160 ± 30 µM (≈ 75.1 µg/mL).

Consider `O=C1/C(=C/c2ccc([N+](=O)[O-])cc2)CN(c2ccccc2)C/C1=C\c1ccc([N+](=O)[O-])cc1` [IE-3, 3,5-Di(4-nitrobenzylidene)-1-phenylpiperidin-4-one], for which the melting point fell in the range of 184 to 188 °C. Moreover, the IC50 in data set [1] (setting [7]) amounted to 65 ± 7 µM. Also, the IC50 in data set [2] (setting [8]) was found to be 65 ± 7 µM.

As to `COc1ccc(/C=C2\CN(C(C)C)C/C(=C\c3ccc(OC)c(O)c3)C2=O)cc1O` [IC-5, 3,5-Di(3-hydroxy-4-methoxylbenzyliden)-1-isopropylpiperidin-4-one], the melting point lay in the range of 165 to 168 °C. For the same molecule, in data set [1] (setting [5]), the concentration for half-maximal inhibition (IC50) is 1.1 µM. Also, the IC50 in data set [2] (setting [6]) is 0.4 µM.

For `COc1ccc(/C=C2\CN(c3ccccc3)C/C(=C\c3ccc(OC)c(OC)c3)C2=O)cc1OC` [IE-7, 3,5-Di(3,4-dimethoxybenzylidene)-1-phenylpiperidin-4-one], the melting point was in the range of 144 to 148 °C. Further, in data set [1] (setting [5]), the IC50 came out at 1.3 ± 0.1 µM. Moreover, the half-maximal inhibitory concentration (IC50) in data set [2] (setting [6]) was determined as 2.9 ± 0.9 µM.

Turning to `COc1cc(/C=C2\CNC/C(=C\c3cc(OC)c(OC)c(OC)c3)C2=O)cc(OC)c1OC` [IA-8], the half-maximal inhibitory concentration (IC50) in data set [3] was 0.088 µM; in data set [1] (setting [5]), 0.3 µM; in data set [2] (setting [6]), 0.32 µM; in data set [2] (read-out: IC50 (μM) L1210, 72 h exposure, MTT, mean of three independent experiments, listed as 4h), about 0.3 µM. Also, the concentration in solution in data set [4] (solubility at 6 h) was 70 ± 10 µM (≈ 31.9 µg/mL).

For `COc1ccc(/C=C2\CN(c3ccccc3)C/C(=C\c3ccc(OC)c(O)c3)C2=O)cc1O` [IE-5, 3,5-Di(3-hydroxy-4-methoxybenzylidene)-1-phenylpiperidin-4-one], the melting point was in the range of 142 to 146 °C. Further, the 50% inhibitory concentration (IC50) in data set [1] (setting [5]) stood at 19 µM. Further, in data set [2] (setting [6]), the half-inhibitory concentration (IC50) was 6 µM.

With `O=C1/C(=C/c2ccccc2)CN(Cc2ccccc2)C/C1=C\c1ccccc1` [ID-1], the IC50 worked out at 3.1 ± 0.1 µM in data set [1] (setting [5]) and 3.4 ± 0.5 µM in data set [2] (setting [6]).

For the molecule `CC(C)N1C/C(=C\c2ccc([N+](=O)[O-])cc2)C(=O)/C(=C/c2ccc([N+](=O)[O-])cc2)C1` [IC-3], the values for the IC50 in data set [1] (setting [5]) and in data set [2] (setting [6]) were 3.7 ± 0.6 µM and 0.9 ± 0.6 µM, respectively.

For `Cc1ccc(/C=C2\CNC/C(=C\c3ccc(C)cc3)C2=O)cc1` [IA-2], the values for the concentration for half-maximal inhibition (IC50) in data set [1] (setting [7]) and in data set [2] (setting [8]) were 8 ± 4 µM and 3.1 ± 0.1 µM, respectively.

On to `Cc1ccc(/C=C2\CN(c3ccccc3)C/C(=C\c3ccc(C)cc3)C2=O)cc1` [IE-2, 3,5-Di(4-methylbenzylidene)-1-phenylpiperidin-4-one], for which the melting point was in the range of 173 to 176 °C. Moreover, the IC50 in data set [1] (setting [5]) was over 100 µM. Besides, the IC50 in data set [2] (setting [6]) is over 100 µM.

With `O=C1/C(=C/c2ccccc2)CN(c2ccccc2)C/C1=C\c1ccccc1` [IE-1], the IC50 in data set [1] (setting [5]) is 7 µM; in data set [2] (setting [6]), 4 ± 2 µM.

The term melting point denotes the temperature of the solid-liquid transition. A word on the IC50: it is the concentration at which inhibition is half-maximal. As a reminder, the solubility is the dissolved amount per volume that the medium holds.
